Results: ChEMBL document CHEMBL1201862, “PubChem BioAssay data set” (2004)
Calls of active or inactive are those of the source.

How the values were obtained:
[1] = inhibitors of clade B AD8 Env fusion, dose response, cell-based, cherry-pick (AID 652062); assay type: functional;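 note: luciferase signal from cell-cell fusion driven by HIV-1 clade B AD8 Env; potency is for inhibitors of fusion seen as a drop in luminescence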
Cytochrome P450 2C9 = Cytochrome P450 2C9 (Homo sapiens, UniProt P11712)
Cytochrome P450 2D6 = Cytochrome P450 2D6 (Homo sapiens, UniProt P10635);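 note: CYP2D6 member of a cytochrome P450 panel assay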
[2] = HepG2 cell cytotoxicity, dose response, cytotoxicity control for Shn3 inhibitor project, CellTiter-Glo, cherry-picked (AID 624134); assay type: functional, cell-based
[3] = ZM109 Env clade C HIV-1 fusion inhibitors, dose response, HeLa effector, CEM target cells, luciferase, cherry-pick (AID 652058); assay type: functional, cell-based
[4] = inhibitors of HIV Env-driven cell fusion, dose response, cherry-pick (AID 652057); assay type: functional, cell-based
[5] = Shn3 3'UTR reporter inhibitors, dose response, cell-based, Clone20 osteoblasts, firefly luciferase, cherry-picked (AID 624132); assay type: functional;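 note: firefly luciferase luminescence from reporter carrying the Shn3 3'UTR in osteoblasts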
[6] = off-target signal loss in HeLa-CEM21 co-culture – HeLa F-luc CTL cells, cherry-picked, counter-screen for HIV-1 Env fusion inhibitor project, dose response (AID 652040); assay type: functional, cell-based;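 note: potency for signal decrease marking cytotoxic or nonspecific inhibition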
[7] = CEM21 lymphoblast cell cytotoxicity, dose response, cytotoxicity control for viral fusion inhibitor project, CellTiter-Glo luminescence, cherry-picked (AID 652042); assay type: functional, cell-based;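 note: potency for signal decrease meaning cytotoxicity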
Cytochrome P450 1A2 = target: T1, Cytochrome P450 1A2 (Homo sapiens, UniProt P05177);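 note: PubChem cytochrome P450 panel assay, CYP1A2 panel member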
T1 sequence (P05177 whole entry): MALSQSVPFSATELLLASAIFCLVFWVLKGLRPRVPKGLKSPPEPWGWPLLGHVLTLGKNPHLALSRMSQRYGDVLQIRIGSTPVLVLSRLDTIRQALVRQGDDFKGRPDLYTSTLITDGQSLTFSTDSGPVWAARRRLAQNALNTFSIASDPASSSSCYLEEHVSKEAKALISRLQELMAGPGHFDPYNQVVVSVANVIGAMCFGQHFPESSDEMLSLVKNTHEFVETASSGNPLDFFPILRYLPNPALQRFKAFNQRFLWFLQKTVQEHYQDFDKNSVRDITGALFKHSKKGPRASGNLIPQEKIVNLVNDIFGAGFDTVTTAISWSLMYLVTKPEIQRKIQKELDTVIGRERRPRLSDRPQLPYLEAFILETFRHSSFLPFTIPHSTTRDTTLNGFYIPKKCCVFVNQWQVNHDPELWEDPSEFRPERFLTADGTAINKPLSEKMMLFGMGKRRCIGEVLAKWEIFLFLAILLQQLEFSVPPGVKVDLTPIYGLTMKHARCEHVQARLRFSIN

[8] = control 3'UTR Renilla luciferase suppression, dose response, counter-screen for Shn3 inhibitor project, cell-based, Clone20-Shn3RL, cherry-picked (AID 624133); assay type: functional
[9] = microbe, parasite or virus in culture; assay type: functional; conditions: Mycobacterium tuberculosis
[10] = Vero cell cytotoxicity, dose response, cytotoxicity control for Vif-APOBEC3G degradation inhibitor project, Vero cells (AID 1117358); assay type: functional; conditions: Human immunodeficiency virus 1, Vero
[11] = cytotoxicity in OVCAR4 cells, dose response, cytotoxicity control for PAX8 inhibitor project, cell-based, plate reader, dry powder, SA11 (AID 743150); assay type: functional; conditions: OVCAR-4
[12] = A2780 ovarian cancer cell cytotoxicity, dose response, cytotoxicity control, plate reader, dry powder samples (AID 743046); assay type: functional, cell-based
[13] = target: Neurotensin receptor type 1 (Homo sapiens, UniProt P30989); assay type: functional;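 note: Image-based confirmatory dose-response assay measuring agonist activity at NTR1; NTR1-expressing U2OS osteosarcoma cells imaged for beta-arrestin GFP spot formation; agonist potency where compounds increase beta-arrestin recruitment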
Vero = experiment: cells; assay type: functional; conditions: Chlorocebus sabaeus
[14] = target: T2, Hepatocyte nuclear factor 4-alpha (Homo sapiens, UniProt P41235); assay type: functional, cell-based;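 note: biochemical luminescence-based dose-response counterscreen measuring inhibition of HNF4 dimerization, run alongside a screen for blockers of ABHD5–perilipin-5 interaction; split luciferase complementation of HNF4 fusion proteins in cell lysate measuring dimerization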
T2 sequence (P41235 whole entry): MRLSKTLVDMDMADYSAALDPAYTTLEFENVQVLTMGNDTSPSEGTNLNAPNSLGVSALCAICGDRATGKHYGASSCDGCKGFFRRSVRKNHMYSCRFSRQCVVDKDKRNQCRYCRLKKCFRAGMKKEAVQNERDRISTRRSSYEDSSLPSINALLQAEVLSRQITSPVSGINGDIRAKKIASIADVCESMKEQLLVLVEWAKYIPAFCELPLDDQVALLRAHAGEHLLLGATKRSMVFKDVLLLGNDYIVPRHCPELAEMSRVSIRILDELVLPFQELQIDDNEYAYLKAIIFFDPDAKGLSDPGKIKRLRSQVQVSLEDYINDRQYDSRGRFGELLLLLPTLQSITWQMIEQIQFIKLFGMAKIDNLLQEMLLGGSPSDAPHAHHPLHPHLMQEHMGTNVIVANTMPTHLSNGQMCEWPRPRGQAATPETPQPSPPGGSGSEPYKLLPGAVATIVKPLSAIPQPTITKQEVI

[15] = cytotoxicity in COV434 cells, dose response, cytotoxicity control for PAX8 inhibitor project, cell-based, plate reader, dry powder, SA7 (AID 743145); assay type: functional
[16] = IOSE-T80 ovarian epithelial cell cytotoxicity, dose response, cytotoxicity control for PAX8 inhibitor project, plate reader, dry powder samples (AID 743045); assay type: functional, cell-based
INS1 = experiment: beta cell apoptosis inhibitors, cytokine rescue, dose response, luminescence, retest (AID 449756); assay type: functional, cell-based; conditions: Rattus norvegicus;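 note: cell death triggered by IL-1 beta plus TNF-alpha plus IFN-gamma mixture; protective hits raise ATP signal compared with cytokine alone wells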
[17] = NIH:OVCAR-3 ovarian cancer cell cytotoxicity, dose response, PAX8 inhibitor project, plate reader, dry powder samples (AID 743044); assay type: functional, cell-based
[18] = IGROV1 ovarian cancer cell cytotoxicity, dose response, PAX8 inhibitor project, plate reader, dry powder samples (AID 743043); assay type: functional, cell-based; conditions: IGROV-1
Protein RecA = target: T3, Protein RecA (Mycobacterium tuberculosis, UniProt P9WHJ3); experiment: Fluorescence Cell-Free Homogeneous Dose Retest to Identify Inhibitors of RecA-Intein Splicing Activity. [Related pubchem assays (depositor defined):AID2097, AID2223, AID489010, AID492950]; assay type: functional
T3 sequence (P9WHJ3 whole entry): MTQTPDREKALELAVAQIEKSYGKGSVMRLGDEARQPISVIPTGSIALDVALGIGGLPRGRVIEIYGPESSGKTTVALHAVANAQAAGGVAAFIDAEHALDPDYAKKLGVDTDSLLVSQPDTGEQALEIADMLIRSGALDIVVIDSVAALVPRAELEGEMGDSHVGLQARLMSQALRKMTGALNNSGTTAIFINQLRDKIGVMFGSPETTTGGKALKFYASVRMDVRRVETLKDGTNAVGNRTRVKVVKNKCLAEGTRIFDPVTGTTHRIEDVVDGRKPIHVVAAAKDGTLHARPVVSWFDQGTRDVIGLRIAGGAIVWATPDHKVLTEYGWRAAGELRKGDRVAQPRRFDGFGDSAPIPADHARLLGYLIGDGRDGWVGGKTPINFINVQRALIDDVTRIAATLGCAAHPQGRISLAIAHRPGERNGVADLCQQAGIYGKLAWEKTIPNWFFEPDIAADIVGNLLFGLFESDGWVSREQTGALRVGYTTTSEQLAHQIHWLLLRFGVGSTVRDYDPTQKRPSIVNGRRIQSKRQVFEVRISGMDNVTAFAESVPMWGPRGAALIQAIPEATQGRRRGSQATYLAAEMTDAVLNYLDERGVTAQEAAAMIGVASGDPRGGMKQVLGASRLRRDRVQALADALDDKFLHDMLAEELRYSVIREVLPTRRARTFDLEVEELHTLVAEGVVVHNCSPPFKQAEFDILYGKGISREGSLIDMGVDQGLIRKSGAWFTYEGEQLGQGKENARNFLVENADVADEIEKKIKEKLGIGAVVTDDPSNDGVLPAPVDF

[19] = PAX5 activity inhibitors, dose response, selectivity assay for PAX8 inhibitor project, cell-based, plate reader, dry powder samples (AID 743047); assay type: functional;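 note: HEK293 cells carrying a Pax5 driven CD19 promoter luciferase reporter; potency of inhibitors that lower reporter luminescence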
[20] = cytotoxicity dependent on PAX8, dose response, cell-based, plate reader, dry powder (AID 743049); assay type: functional
Paired box protein Pax-8 = Paired box protein Pax-8 (Homo sapiens, UniProt Q06710); experiment: inhibitors of PAX8-driven TPO luciferase reporter, dose response, RMG-I cells, cherry-pick (AID 687027); assay type: functional, cell-based;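 note: luciferase reporter driven by Pax8 target thyroperoxidase promoter measured by SteadyGlo luminescence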
[21] = target: T4, Replicative DNA helicase DnaB (Mycobacterium tuberculosis, UniProt P9WMR3); experiment: DnaB intein splicing inhibitors, dose response, biochemical, cell-free fluorescence (AID 449749); assay type: functional
T4 sequence (P9WMR3 whole entry): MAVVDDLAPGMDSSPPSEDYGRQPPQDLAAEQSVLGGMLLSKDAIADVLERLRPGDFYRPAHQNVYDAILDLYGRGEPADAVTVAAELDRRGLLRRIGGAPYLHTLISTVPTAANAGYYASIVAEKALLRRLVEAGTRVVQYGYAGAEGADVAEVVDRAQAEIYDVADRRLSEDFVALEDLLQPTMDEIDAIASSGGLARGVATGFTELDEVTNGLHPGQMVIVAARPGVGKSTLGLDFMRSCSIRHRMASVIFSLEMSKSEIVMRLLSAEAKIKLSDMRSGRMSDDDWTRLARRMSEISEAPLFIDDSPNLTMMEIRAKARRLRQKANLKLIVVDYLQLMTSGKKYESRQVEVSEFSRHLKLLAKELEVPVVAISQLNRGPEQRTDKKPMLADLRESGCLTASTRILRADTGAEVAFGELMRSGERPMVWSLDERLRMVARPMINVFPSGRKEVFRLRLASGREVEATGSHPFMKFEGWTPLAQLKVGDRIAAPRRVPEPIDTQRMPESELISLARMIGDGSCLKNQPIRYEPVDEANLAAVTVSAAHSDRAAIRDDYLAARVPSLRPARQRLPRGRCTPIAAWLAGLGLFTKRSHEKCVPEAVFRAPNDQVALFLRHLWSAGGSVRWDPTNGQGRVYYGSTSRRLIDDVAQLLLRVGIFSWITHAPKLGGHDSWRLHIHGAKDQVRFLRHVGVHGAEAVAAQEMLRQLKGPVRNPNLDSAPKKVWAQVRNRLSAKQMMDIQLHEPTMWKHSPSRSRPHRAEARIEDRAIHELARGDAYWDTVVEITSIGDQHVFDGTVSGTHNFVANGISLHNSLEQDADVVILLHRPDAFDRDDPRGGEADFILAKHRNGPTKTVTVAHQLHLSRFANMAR

[22] = PAX2 cell-based inhibition, dose response, selectivity assay for PAX8 inhibitor project, plate reader, dry powder samples (AID 743048); assay type: functional;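 note: HEK293 cells carrying a WT1 promoter luciferase reporter driven by expressed Pax2; potency is for inhibition of Pax2 driven reporter signal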
[23] = cytotoxicity in OV-90 ovarian cancer cells, dose response, PAX8 inhibitor project, cell-based, plate reader, dry powder, SA8 (AID 743149); assay type: functional
[24] = cytotoxicity in COV362 ovarian cancer cells, dose response, cytotoxicity control for PAX8 inhibitor project, cell-based, plate reader, dry powder, SA12 (AID 743144); assay type: functional
[25] = target: T5, Oxysterols receptor LXR-beta (Homo sapiens, UniProt P55055); assay type: functional, cell-based;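 note: Cell-based luminescence dose-response assay of agonist activity at LXR, run as a confirmatory counterscreen to a daf-12 agonist screen; agonist potency from rising luciferase signal of a Gal4-LXR reporter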
T5 sequence (P55055 whole entry): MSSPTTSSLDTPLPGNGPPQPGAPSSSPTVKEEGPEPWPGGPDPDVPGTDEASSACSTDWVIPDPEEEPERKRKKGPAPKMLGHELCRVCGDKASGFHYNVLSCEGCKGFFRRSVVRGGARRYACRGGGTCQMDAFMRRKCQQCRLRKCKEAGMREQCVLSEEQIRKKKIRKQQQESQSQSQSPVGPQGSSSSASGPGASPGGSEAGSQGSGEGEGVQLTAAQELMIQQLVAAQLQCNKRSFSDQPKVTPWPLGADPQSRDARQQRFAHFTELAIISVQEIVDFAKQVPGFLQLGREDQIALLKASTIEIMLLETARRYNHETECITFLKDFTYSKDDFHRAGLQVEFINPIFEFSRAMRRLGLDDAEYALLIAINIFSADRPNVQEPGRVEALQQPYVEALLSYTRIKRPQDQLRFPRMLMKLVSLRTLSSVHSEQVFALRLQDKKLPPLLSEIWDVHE

[26] = HepG2 cell cytotoxicity, dose response, cytotoxicity control, ATP luminescence, cherry-pick, activator set 2 (AID 1053143); assay type: functional, cell-based
[27] = Luminescence-based cell-based high throughput dose response assay to identify activators of the DAF-12 from the parasite S. stercoralis (ssDAF-12).; assay type: functional
[28] = target: T5, Oxysterols receptor LXR-beta; experiment: LXR agonists, Gal4 luciferase reporter, dose response, counter-screen for ssDAF-12 agonist project, cell-based, luminescence, HEK293, S. stercoralis campaign (AID 720737); assay type: functional; conditions: read-out: IC50 (the source's name)

Chain of Cytochrome P450 2D6 (P10635 whole entry): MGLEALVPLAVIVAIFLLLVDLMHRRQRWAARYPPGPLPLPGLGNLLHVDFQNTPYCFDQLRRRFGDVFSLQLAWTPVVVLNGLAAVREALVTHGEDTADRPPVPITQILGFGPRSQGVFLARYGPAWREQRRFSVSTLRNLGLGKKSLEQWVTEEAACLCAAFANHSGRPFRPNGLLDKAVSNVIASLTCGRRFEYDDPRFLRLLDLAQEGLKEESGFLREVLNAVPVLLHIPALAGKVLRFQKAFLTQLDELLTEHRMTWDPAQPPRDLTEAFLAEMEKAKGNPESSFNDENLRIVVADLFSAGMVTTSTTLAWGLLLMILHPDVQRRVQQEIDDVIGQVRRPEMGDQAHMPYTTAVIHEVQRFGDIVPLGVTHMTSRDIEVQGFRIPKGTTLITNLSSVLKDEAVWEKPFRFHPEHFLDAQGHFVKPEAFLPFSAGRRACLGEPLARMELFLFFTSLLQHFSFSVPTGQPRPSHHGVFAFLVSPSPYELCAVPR
Chain of Cytochrome P450 2C9 (P11712 whole entry): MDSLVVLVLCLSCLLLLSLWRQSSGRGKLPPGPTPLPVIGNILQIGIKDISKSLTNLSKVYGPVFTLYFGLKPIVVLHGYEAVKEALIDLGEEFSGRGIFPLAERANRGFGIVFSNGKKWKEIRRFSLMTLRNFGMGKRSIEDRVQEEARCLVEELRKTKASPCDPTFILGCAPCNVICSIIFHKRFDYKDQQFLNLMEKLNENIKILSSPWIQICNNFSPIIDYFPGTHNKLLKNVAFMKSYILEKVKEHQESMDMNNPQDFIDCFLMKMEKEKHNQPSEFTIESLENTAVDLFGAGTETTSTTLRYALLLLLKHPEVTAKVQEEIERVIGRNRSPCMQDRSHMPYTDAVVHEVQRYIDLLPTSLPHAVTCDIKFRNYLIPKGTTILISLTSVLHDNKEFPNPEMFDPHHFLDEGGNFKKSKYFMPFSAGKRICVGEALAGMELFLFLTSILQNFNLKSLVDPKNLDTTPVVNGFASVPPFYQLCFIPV
Chain of Paired box protein Pax-8 (Q06710 whole entry): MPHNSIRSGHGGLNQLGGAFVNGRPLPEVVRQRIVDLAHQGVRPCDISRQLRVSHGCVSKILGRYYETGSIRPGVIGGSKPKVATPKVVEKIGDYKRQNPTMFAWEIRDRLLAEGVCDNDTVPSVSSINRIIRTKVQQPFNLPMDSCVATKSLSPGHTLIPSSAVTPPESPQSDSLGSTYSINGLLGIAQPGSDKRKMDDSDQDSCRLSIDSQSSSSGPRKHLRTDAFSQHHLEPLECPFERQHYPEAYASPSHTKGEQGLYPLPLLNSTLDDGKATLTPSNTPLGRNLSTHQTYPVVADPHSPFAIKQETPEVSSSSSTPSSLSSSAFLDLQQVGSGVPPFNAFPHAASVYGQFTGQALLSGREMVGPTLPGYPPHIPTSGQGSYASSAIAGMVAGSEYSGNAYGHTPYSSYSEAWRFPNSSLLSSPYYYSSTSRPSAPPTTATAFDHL
Chain of Neurotensin receptor type 1 (P30989 whole entry): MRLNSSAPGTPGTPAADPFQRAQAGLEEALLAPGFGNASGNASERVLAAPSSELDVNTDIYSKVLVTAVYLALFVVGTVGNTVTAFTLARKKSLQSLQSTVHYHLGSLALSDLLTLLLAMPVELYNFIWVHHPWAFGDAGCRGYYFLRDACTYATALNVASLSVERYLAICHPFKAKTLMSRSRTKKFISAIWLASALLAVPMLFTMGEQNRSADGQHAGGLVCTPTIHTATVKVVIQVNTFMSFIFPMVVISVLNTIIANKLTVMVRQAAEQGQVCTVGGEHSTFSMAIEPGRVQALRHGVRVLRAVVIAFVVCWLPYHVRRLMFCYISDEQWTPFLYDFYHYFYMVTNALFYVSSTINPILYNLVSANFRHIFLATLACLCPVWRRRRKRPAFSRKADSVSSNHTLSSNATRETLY

With `Nc1nc(Cl)cc(N2CCC(c3cc(-c4ccc(Cl)cc4Cl)[nH]n3)CC2)n1` the AC50 [1] was 16.6 µM (active), the AC50 (Cytochrome P450 2C9) was 22.4 µM (inconclusive) and the AC50 (Cytochrome P450 2D6) was 12.6 µM (inconclusive). The AC50 [2] was 62 µM (active), the AC50 [3] was 0.394 µM (active) and the AC50 [4] was 18.5 µM (active). The AC50 [5] was 4.94 µM (active), the AC50 [6] was > 70 µM (inactive) and the AC50 [7] was 36.1 µM (active). For the same compound, the AC50 (Cytochrome P450 1A2) was 6.31 µM (inconclusive), the AC50 [8] was 5.61 µM (active) and the CC50 [9] was > 40 µM (active). The CC50 [10] was > 40 µM (active).
With `O=C(Nc1ccc(Cl)cc1)/C(=C/c1cccc(O)c1)c1nc2ccccc2s1` the AC50 [11] was 13.7 µM (active), the AC50 [12] was 15.1 µM (active) and the EC50 [13] was 6.69 µM (active). For the same compound, the AC50 [2] was 9.66 µM (active), the CC50 (Vero) was 2.37 µM (active) and the IC50 [14] was 4.66 µM (active). For the same compound, the AC50 [15] was 9.35 µM (active), the AC50 [5] was 3.53 µM (active) and the AC50 [16] was 11.5 µM (active). For the same compound, the AC50 (INS1) was 3.7 µM (active), the AC50 [17] was 8.14 µM (active) and the AC50 [18] was 30.7 µM (active). For the same compound, the EC50 (Protein RecA) was 0.481 µM (active), the AC50 [19] was 7.08 µM (active) and the AC50 [8] was 9.54 µM (active). For the same compound, the AC50 [20] was 4.02 µM (active), the AC50 (Paired box protein Pax-8) was 3.92 µM (active) and the AC50 [21] was > 380 µM (inconclusive). For the same compound, the AC50 [22] was 12.8 µM (active), the AC50 [23] was 4.14 µM (active) and the AC50 [24] was 5.28 µM (active).
In the case of `Oc1ccccc1-c1cc(-c2ccccc2)[nH]n1`, the EC50 [25] is reported as > 67.4 µM (inactive), the AC50 [26] is reported as 26 µM (active) and the IC50 [27] is reported as > 67.4 µM (inactive). The EC50 [28] was > 67.4 µM (inactive) and the EC50 (cells) was > 67.4 µM (inactive).
In the case of `Cc1ccccc1C(=O)N/N=C1/SCC(=O)N1Cc1ccccc1`, the IC50 [27] is reported as > 67.5 µM (inactive) and the EC50 [28] is reported as > 67.5 µM (inactive).
With `C=CCOc1ccc(Br)cc1/C=N/O` the CC50 [10] was 2.72 µM (active).
